Measured values reported in patent US20240350430A1, “GROWTH INHIBITOR OF METASTATIC HUMAN PROSTATE CANCER CELLS” (Watanabe Oyster Laboratory Co., Ltd., priority 2021, published 2024).

Tested on: PC-3 cells
Assay: Cell death of sub-confluent PC-3 cells (adherent cell counting)
Type: cell-based, human
Procedure: The PC-3 and DU-145 cells (1×10^5/in 1 ml of a culture fluid per hole using a 24-hole plate) were cultured in a DMEM culture fluid (containing 10% of FBS, 1% of P/S, and 1% of fungizone) under 5% of CO2, at 37° C., for three days, and when the cells reached sub-confluence, the culture fluid was exchanged for the one containing the DHMBA (0.01, 0.1, 1, 10, 100, or 1000 μM), and the cells were cultured for 24 and 48 hours. After the culture, the cells adhering to the bottom surface of the dish were removed and counted. In another experiment, after the culture for three days, when the cells reached sub-confluence, the culture fluid was exchanged for a culture fluid containing the DHMBA (1 or 10 μM) and a caspase-3 inhibitor (10 μM), and the cells were counted after the culture for 48 hours. Further, after the culture for three days, when the cells reached sub-confluence, the culture fluid was exchanged for a culture fluid obtained by adding gemcitabine (0.1, 1, 10, 50 or 100 nM) or CH223191 (1, 10, and 25 μM) to a DMEM culture fluid containing the DHMBA (1 or 10 μM) or not containing the DHMBA, and the cells were counted after the culture for 48 hours.
After the culture of the cells, 0.1 ml of 0.05% trypsin-EDTA solution obtained by dissolving the cells adhering to the bottom surface of the culture dish in PBS (Thermo Fisher Scientific, Waltham, MA, USA) not containing Ca^2+/Mg^2+ was added, incubation was performed at 37° C. for two minutes to release the adhering cells, and 0.9 ml of the DMEM culture fluid containing 10% of FBS and 1% of P/S was added to stop the reaction. The visible cells were counted by the Olympus MTV-3 microscope using a hemocytometer (Sigma-Aldrich).
(§1) In the drawing, the PC-3 (FIGS. 5(A) and 5(B)) and DU-145 (FIGS. 5(D) and 5(E)) cells (1×10^5/in 1 ml of a culture fluid per hole using a 24-hole plate) were cultured under 5% of CO2, at 37° C., for three days in a DMEM culture fluid (containing 10% of FBS, 1% of P/S, and 1% of fungizone), and when the cells reached sub-confluence, the culture fluid was exchanged for the one containing the DHMBA (0.01, 0.1, 1, 10, 100, or 1000 μM), and the cells were cultured for 24 and 48 hours. In the drawing, after the culture, the cells adhering to the dish were counted.
In another experiment, after the culture for three days, when the cells reached sub-confluence, for the PC-3 (FIG. 5(C)) or DU-145 (FIG. 5(F)) cells, the culture fluid was exchanged for a culture fluid containing the DHMBA (1 or 10 μM) and a caspase-3 inhibitor (10 μM), and the cells were counted after the culture for 48 hours. Further, after the culture for three days, when the cells reached sub-confluence, the culture fluid was exchanged for a culture fluid obtained by adding gemcitabine (0.1, 1, 10, 50 or 100 nM) or CH223191 (1, 10, and 25 μM) to a DMEM culture fluid containing the DHMBA (1 or 10 μM) or not containing the DHMBA, and the cells were counted after the culture for 48 hours. After the culture, the cells adhered to the dish were removed and counted. Each piece of data is shown with a mean value and a standard deviation of values obtained from eight wells of the different cultured cells. *p<0.001, comparison with the control (gray bar). 1-way ANOVA, Tukey-Kramer post-test.
as §1, with “The” for “In the drawing, the”, “PC-3” for “PC-3 (FIGS. 5(A) and 5(B)) and DU-145 (FIGS. 5(D) and 5(E))”, “gemcitabine (1,” for “DHMBA (0.01, 0.1, 1,”, “10, 50,” for “10,”, “250 nM),” for “1000 μM),”, “for” for “for 24 and”
After the culture for three days, when the cells reached sub-confluence, the culture fluid was exchanged for a culture fluid containing the DHMBA (1 or 10 μM) and gemcitabine (1, 10, or 100 nM), and the cells were counted after the culture for 48 hours. […]

COc1c(O)cc(CO)cc1O [DHMBA, 3,5-dihydroxy-4-methoxybenzyl alcohol]
cell death inducing effect of DHMBA in the presence of CH223191 (DHMBA 10 μM with CH223191 1, 10, or 25 μM, 48 hours): found not to be expressed | cell death (DHMBA 1, 10, 100, or 1000 μM, 24 and 48 hours): significantly increased | cell death inducing action of DHMBA in the presence of gemcitabine 1 or 10 nM (DHMBA 1 and 10 μM, 48 hours): did not occur | cell death inducing effect of DHMBA in the coexistence of gemcitabine 100 nM (DHMBA 1 and 10 μM, 48 hours): significantly enhanced | increase of cell death in the presence of caspase-3 inhibitor (DHMBA 1 or 10 μM with caspase-3 inhibitor 10 μM, 48 hours): not caused
